Values after ≈ are worked out from the molar mass of the structure shown.

A word on the kinetic solubility: it is the concentration staying in solution when a stock, usually in DMSO, is diluted into the medium.

For this data set the following is noted: buffer; pH 7.4; 200.0 µM.
Molecule `Nc1cc(Cl)ccc1C(=O)OCC(=O)N1CCCCCC1` returned a kinetic solubility of 5.4 µg/mL (≈ 17.4 µM).
The molecule `CCOc1cc(C(=O)NCc2ccco2)cc(OCC)c1OCC` came in with a solubility (kinetic) of 49.7 µg/mL (≈ 149 µM). This solubility kinetic is about 9.2-fold higher than that of the molecule before.
Consider `O=C(Nc1ccc(Br)cc1)NC1CCCCCCC1`, for which the kinetic solubility is less than 0.3 µg/mL.
With `CN(C)CC#CCC(O)(c1ccccc1)C1CCCCC1` (configuration not stated), the solubility (kinetic) came to 42.7 µg/mL (≈ 150 µM).
The value for `Cc1nc(N2CCN(c3ccc(Cl)cc3)CC2)[nH]c(=O)c1C` was 1.6 µg/mL (≈ 5.02 µM); that for `Cc1cc(NC(=O)CSc2nc3cc(Cl)ccc3o2)no1` was 0.5 µg/mL (≈ 1.54 µM).
`COc1ccccc1CNC(=S)Nc1ccc(F)cc1` had a solubility (kinetic) of 12 µg/mL (≈ 41.3 µM).
Consider `Cc1ccc(NS(=O)(=O)c2cc(C(=O)N(C)C3CCN(C)CC3)ccc2Cl)cc1Cl.O=C(O)C(=O)O`, for which the kinetic solubility was more than 84.1 µg/mL.
As for `Cc1cc(SCC(=O)NCC2CCCO2)nc2ccccc12` (configuration not stated), the kinetic solubility was more than 47.5 µg/mL.
The value for `N#C/C(=C\c1c(F)cccc1Cl)S(=O)(=O)c1ccccn1` was 36.2 µg/mL (≈ 112 µM).
Turning to `CC1CC(C)CN(C(=O)c2ccc3ncsc3c2)C1` (configuration not stated), the solubility (kinetic) was more than 41.2 µg/mL.
As to `O=C1CCCC(O)=C1C=NCc1ccccc1`, the solubility (kinetic) is more than 34.4 µg/mL.
Take `C=CC[N+]1(CC=C)CCOCC1.[Br-]`: the solubility (kinetic) is more than 37.2 µg/mL.
For `Oc1ccc2ccccc2c1C=NC12CN3CCN(CN(C3)C1)C2`, the kinetic solubility is 46.5 µg/mL (≈ 144 µM).
In turn, `COc1cccc(CC(=O)Nc2nc(-c3ccc(F)c(F)c3)cs2)c1` gave a kinetic solubility of 0.5 µg/mL (≈ 1.39 µM).
In the case of `Nc1nc(-c2ccc3ccccc3c2)cs1`, the kinetic solubility came to 11.8 µg/mL (≈ 52.1 µM).
For the molecule `CCNC(=O)C1CCCN(c2nc(C)cc(C)n2)C1` (configuration not stated), the kinetic solubility is more than 39.4 µg/mL.
As for `COC(=O)c1ccc(N2CCN(c3ccccc3)CC2)c(N)c1`, the figure is 0.8 µg/mL (≈ 2.57 µM).
As for `CCOC(=O)Cn1cc(Cl)c(=O)c(Cl)c1`, the kinetic solubility was 35.8 µg/mL (≈ 143 µM).
In turn, `Cc1cc(/C=C2/C(=O)NC(=O)N(c3ccc(Br)cc3)C2=O)c(C)n1C` showed a solubility (kinetic) of 5.3 µg/mL (≈ 13.2 µM). Compared with the last molecule, the solubility kinetic is about 6.8-fold lower.
The molecule `COc1ccc(CC(=O)OCC(=O)c2ccc[nH]2)cc1` displayed a solubility (kinetic) of more than 41 µg/mL.
`CCCCn1c(SCC(=O)Nc2cc(C)on2)nnc1-c1ccncc1` registered a kinetic solubility of more than 55.9 µg/mL.
As to `CC(NC(=S)Nc1cccc(C(F)(F)F)c1)C(C)(C)C` (configuration not stated), the solubility (kinetic) turned out to be 4.6 µg/mL (≈ 15.1 µM).
For the molecule `COc1ccc(NC(=O)CN2CCc3ccccc3C2)c(OC)c1`, the solubility (kinetic) was determined as 34.1 µg/mL (≈ 104 µM). This solubility kinetic lies about 7.4-fold higher than the previous one.
The molecule `COc1ccc(NC(=O)CN(C)C2CCCCC2)cc1Cl` showed a kinetic solubility of 32.7 µg/mL (≈ 105 µM).
In turn, `O=C(Cc1csc(-c2ccccc2)n1)NCC(=O)Nc1ccc(F)c(F)c1F` gave a kinetic solubility of 9 µg/mL (≈ 22.2 µM).
As to `O=C(COC(=O)COc1ccc(Cl)cc1Cl)NC1CC1`, the solubility (kinetic) is more than 47.7 µg/mL.
As for `Cc1cccc(C)c1NC(=O)CN(C)C(=O)C1CCCCC1`, the figure is more than 45.4 µg/mL; as for `CN1CCN(C(=O)/C=C/c2ccccc2)CC1`, more than 34.5 µg/mL.
Molecule `Brc1cc2c(cc1-c1nc3ccccc3s1)OCO2` gave a kinetic solubility of less than 0.7 µg/mL.
`O=C1NC(=O)C(=Cc2ccsc2)C(=O)N1` yielded a kinetic solubility of more than 33.3 µg/mL.
`Cc1nc(-c2ccccn2)nc(N(C)c2ccccc2)c1Cl` returned a solubility (kinetic) of 41.7 µg/mL (≈ 134 µM).
The value for `CC(=O)NC(CC(=O)O)c1ccccc1` (configuration not stated) was more than 31.1 µg/mL.
`O=C(c1cccs1)N1CC=C(c2ccccc2)CC1`: the kinetic solubility was 11.5 µg/mL (≈ 42.7 µM).
`N#CCCN(Cc1ccncc1)C(=S)NC1CC2C=CC1C2` (configuration not stated) displayed a kinetic solubility of 46.3 µg/mL (≈ 148 µM).
The molecule `CCOC(=O)c1cc2c(n(-c3ccc(Cl)cc3)c1=O)CCCC2=O` showed a solubility (kinetic) of more than 51.9 µg/mL.
As to `Clc1ccc(-c2cc(CN3CCOCC3)no2)cc1`, the solubility (kinetic) is more than 41.8 µg/mL.
`O=C(COc1ccc(C2SCCS2)cc1)Nc1ccc(Cl)cc1` registered a solubility (kinetic) of less than 0.8 µg/mL.
Molecule `CN(C)S(=O)(=O)c1ccc(C(=O)OCC(=O)NC(=O)NC2CCCC2)cc1` showed a kinetic solubility of 7.9 µg/mL (≈ 19.9 µM).
In turn, `CN(C)C(=O)c1ccc(OCC(F)(F)F)nc1` came in with a solubility (kinetic) of 36.7 µg/mL (≈ 148 µM).
In the case of `CCOC(=O)C1CCCN(C(=O)c2cc3ccc(OC)cc3[nH]2)C1` (configuration not stated), the solubility (kinetic) was more than 49.6 µg/mL.
In the case of `O=C(COC(=O)C1=COCCO1)Nc1ccc(Br)cc1Br`, the solubility (kinetic) came to 6.6 µg/mL (≈ 15.7 µM).
As for `CCOC(=O)Cc1csc(NC(=O)/C=C/c2ccccc2Cl)n1`, the kinetic solubility was less than 0.4 µg/mL.
`CCOC(=O)c1c(N)sc2c1CCCC2=O` registered a kinetic solubility of 34.7 µg/mL (≈ 145 µM).
Molecule `Cc1ccc2nc(C)cc(C(=O)NC3CCCCCC3)c2c1` gave a solubility (kinetic) of 3.6 µg/mL (≈ 12.1 µM).
`Cc1ccc(CN2CC(C(=O)Nc3ccc(C)cn3)CC2=O)cc1` (configuration not stated) had a solubility (kinetic) of more than 48.5 µg/mL.
`N#CC(C#N)=Cc1ccc(N2CCOCC2)cc1`: the kinetic solubility was found to be 4.4 µg/mL (≈ 18.4 µM).
As for `COC(OC)c1ccnc(-c2ccc(OC(C)=O)cc2)n1`, the solubility (kinetic) was more than 43.2 µg/mL.
Take `CC1CCCC(C)N1C(=O)COC(=O)/C=C/c1ccc(Br)o1` (configuration not stated): the solubility (kinetic) was 29.8 µg/mL (≈ 80.5 µM).
On to `CCCNC(=O)N1CCC(c2nc3ccccc3s2)CC1`, for which the solubility (kinetic) was more than 45.5 µg/mL.
For the molecule `Cc1csc(NC(=O)CS(=O)(=O)c2ccccc2)n1`, the kinetic solubility is 44.3 µg/mL (≈ 149 µM).
For the molecule `CCCCCNCc1ccc(Cl)cc1`, the solubility (kinetic) was determined as 12.4 µg/mL (≈ 58.6 µM).

The values above are taken from PubChem BioAssay AID1996.
